In patent US20200383970A1, “Morphinan Derivatives with High Oral Bioavailability” (Alkermes Pharma Ireland Limited, priority 2009, published 2020):
Where two headings read alike, the source gives them in different places.

Assays:
[1] = Pharmacokinetic analysis following PO administration in rat
[2] = Pharmacokinetic analysis following PO administration in dog; format: in vivo
Procedure: Example 2: Pharmacokinetic analysis of Compound 1: The PK of Compound 1 and the reference compound Naltrexone was determined following IV (1 mg/kg) and PO (10 mg/kg or 1 mg/kg) administration. Concentrations of Compound 1 and naltrexone were determined by LC-MS/MS. The PK parameters were determined by noncompartmental analysis using WiNonlin (v5.1). FIGS. 2-4 show the PK profiles of naltrexone and Compound 1.

[3] = Pharmacokinetic analysis following PO administration in monkey
[4] = dog, oral dose 1 (mg); Reuning et at. J Pharm Sci. 1979; cited from earlier work

NC(=O)c1ccc2c(c1O)[C@]13CCN(CC4CC4)[C@H](C2)[C@]1(O)CCC(=O)C3 [Compound 1]
AUC(0-inf) ([1]; rat, in vivo, po, 10 mg/kg): 1320 ng·h/mL | Cmax ([1]; rat, in vivo, po, 10 mg/kg): 929 ng/mL | bioavailability ([1]; rat, in vivo, po, 10 mg/kg): 15% | half-life ([1]; rat, in vivo, po, 10 mg/kg): 72 min | improvement in oral bioavailability in comparison with naltrexone ([1]; rats, oral administration): 4 fold | AUC(0-inf) ([2]; dog, in vivo, po, 1 mg/kg): 491 ng·h/mL | half-life ([2]; dog, in vivo, po, 1 mg/kg): 192 min | improvement in oral bioavailability in comparison with naltrexone ([2]; dogs, oral administration): over 50 fold | Cmax ([2]; in vivo, 1 mg/kg, dog, oral dose 1 (mg)): 104 ng/mL | bioavailability ([2]; in vivo, 1 mg/kg, dog, oral dose 1 (mg), read-out: Bioavailability (F %)): 66% | AUC(0-inf) ([3]; monkey, in vivo, po, 10 mg/kg): 4470 ng·h/mL | Cmax ([3]; monkey, in vivo, po, 10 mg/kg): 627 ng/mL | bioavailability ([3]; monkey, in vivo, po, 10 mg/kg): 68% | half-life ([3]; monkey, in vivo, po, 10 mg/kg): 324 min | improvement in oral bioavailability in comparison with naltrexone ([3]; monkeys, oral administration): over 4 fold

O=C1CC[C@@]2(O)[C@H]3Cc4ccc(O)c5c4[C@@]2(CCN3CC2CC2)[C@H]1O5 [Naltrexone, reference compound]
AUC(0-inf) ([1]; rat, in vivo, po, 10 mg/kg): 150 ng·h/mL | Cmax ([1]; rat, in vivo, po, 10 mg/kg): 61.6 ng/mL | bioavailability ([1]; rat, in vivo, po, 10 mg/kg): 3% | AUC∞ [4]: 4.2 ng·h/mL | Bioavailability (F %) [4]: 1.1% | Cmax [4]: 2.7 ng/mL | AUC(0-inf) ([3]; monkey, in vivo, po, 10 mg/kg): 54 ng·h/mL | Cmax ([3]; monkey, in vivo, po, 10 mg/kg): 13 ng/mL | bioavailability ([3]; monkey, in vivo, po, 10 mg/kg): 13%
